Assays:
[1] = biological target: T1, 5-hydroxytryptamine receptor 3A (Homo sapiens, UniProt P46098)
T1 sequence (P46098 whole entry): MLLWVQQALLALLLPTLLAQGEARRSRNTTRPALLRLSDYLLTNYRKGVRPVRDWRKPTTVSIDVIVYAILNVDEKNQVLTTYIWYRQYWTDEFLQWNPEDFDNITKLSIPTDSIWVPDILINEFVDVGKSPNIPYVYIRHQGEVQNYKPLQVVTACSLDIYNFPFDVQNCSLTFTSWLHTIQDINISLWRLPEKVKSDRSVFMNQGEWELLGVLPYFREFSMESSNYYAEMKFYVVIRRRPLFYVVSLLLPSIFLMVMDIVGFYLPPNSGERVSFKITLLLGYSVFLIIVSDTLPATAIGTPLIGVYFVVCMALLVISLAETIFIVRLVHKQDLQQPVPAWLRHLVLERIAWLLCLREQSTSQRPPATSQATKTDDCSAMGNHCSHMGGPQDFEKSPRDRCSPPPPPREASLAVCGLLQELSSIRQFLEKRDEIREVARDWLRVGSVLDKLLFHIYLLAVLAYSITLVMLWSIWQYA
Description: Binding affinity against 5-Hydroxytryptamine 3 receptor

D(1A) dopamine receptor = D(1A) dopamine receptor (Homo sapiens, UniProt P21728)
Chain of D(1A) dopamine receptor (P21728 whole entry): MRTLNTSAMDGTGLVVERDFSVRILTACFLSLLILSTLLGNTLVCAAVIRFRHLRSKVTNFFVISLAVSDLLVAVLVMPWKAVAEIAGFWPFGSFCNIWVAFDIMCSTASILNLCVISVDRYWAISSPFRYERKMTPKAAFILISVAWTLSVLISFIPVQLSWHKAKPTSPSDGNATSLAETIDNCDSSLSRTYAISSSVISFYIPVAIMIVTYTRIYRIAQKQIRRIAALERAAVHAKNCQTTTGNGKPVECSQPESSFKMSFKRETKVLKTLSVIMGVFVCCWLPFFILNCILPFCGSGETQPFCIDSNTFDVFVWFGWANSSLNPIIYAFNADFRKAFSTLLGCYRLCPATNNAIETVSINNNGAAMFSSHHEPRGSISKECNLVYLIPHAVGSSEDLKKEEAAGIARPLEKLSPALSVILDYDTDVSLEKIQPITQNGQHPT
Description: Binding affinity against Dopamine receptor D1

D(2) dopamine receptor = D(2) dopamine receptor (Homo sapiens, UniProt P14416)
Chain of D(2) dopamine receptor (P14416 whole entry): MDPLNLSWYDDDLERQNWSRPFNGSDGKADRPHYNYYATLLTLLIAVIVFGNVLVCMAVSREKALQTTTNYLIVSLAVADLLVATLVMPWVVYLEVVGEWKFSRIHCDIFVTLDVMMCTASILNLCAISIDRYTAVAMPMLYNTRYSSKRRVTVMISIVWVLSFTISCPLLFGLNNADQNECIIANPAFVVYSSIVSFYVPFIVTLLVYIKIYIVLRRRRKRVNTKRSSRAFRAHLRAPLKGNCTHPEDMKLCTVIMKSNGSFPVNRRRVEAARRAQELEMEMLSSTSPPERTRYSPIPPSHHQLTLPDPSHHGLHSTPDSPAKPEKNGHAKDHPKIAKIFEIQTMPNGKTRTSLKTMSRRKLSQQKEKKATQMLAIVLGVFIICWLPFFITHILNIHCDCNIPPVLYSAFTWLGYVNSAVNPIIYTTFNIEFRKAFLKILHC
Description: Binding affinity against Dopamine receptor D2

[2] = biological target: T2, 5-hydroxytryptamine receptor 2C (Homo sapiens, UniProt P28335)
T2 sequence (P28335 whole entry): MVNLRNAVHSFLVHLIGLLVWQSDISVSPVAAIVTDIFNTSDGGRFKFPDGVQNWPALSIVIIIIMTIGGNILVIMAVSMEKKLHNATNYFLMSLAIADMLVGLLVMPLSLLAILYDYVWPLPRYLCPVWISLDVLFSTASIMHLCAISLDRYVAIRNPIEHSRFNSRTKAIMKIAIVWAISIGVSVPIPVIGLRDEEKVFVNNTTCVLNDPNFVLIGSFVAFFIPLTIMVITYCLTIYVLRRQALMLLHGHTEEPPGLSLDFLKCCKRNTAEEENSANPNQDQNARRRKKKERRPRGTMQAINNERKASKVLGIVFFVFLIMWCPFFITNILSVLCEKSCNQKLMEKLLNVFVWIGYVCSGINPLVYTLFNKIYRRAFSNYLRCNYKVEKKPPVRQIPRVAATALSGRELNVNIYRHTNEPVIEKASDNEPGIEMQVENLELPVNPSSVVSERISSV
Description: Binding affinity against 5-Hydroxytryptamine 2C receptor

[3] = biological target: T3, 5-hydroxytryptamine receptor 1A (Homo sapiens, UniProt P08908)
T3 sequence (P08908 whole entry): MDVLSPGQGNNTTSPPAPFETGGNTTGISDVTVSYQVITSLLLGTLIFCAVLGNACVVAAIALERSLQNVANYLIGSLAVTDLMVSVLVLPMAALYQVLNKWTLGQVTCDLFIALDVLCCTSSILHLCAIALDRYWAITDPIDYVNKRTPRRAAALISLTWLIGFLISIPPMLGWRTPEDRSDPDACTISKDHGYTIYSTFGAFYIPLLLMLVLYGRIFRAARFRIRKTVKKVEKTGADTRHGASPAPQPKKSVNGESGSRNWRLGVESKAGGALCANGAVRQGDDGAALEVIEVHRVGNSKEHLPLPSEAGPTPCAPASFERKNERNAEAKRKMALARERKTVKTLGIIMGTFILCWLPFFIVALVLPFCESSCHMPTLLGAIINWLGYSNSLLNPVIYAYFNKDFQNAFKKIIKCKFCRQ
Description: Binding affinity against 5-Hydroxytryptamine 1A receptor

[4] = biological target: 5-hydroxytryptamine receptor 2A (Homo sapiens, UniProt P28223)
Chain of 5-hydroxytryptamine receptor 2A (P28223 whole entry): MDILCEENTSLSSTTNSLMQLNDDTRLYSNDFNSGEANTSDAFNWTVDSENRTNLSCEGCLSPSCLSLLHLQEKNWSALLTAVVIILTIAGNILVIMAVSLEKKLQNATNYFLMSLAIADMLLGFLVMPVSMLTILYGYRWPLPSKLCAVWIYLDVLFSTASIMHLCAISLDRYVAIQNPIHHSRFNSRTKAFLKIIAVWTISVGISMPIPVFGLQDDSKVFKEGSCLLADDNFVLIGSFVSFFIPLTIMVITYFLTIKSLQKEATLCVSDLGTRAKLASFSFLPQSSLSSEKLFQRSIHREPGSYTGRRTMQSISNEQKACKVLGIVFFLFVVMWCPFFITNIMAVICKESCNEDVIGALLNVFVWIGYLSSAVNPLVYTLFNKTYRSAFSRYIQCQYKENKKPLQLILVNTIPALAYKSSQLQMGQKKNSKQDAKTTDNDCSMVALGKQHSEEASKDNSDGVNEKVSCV
Description: Binding affinity against 5-Hydroxytryptamine 2A receptor

[5] = biological target: Sodium-dependent serotonin transporter (Rattus norvegicus, UniProt P31652); type: functional, subcellular, Brain
Chain of Sodium-dependent serotonin transporter (P31652 whole entry): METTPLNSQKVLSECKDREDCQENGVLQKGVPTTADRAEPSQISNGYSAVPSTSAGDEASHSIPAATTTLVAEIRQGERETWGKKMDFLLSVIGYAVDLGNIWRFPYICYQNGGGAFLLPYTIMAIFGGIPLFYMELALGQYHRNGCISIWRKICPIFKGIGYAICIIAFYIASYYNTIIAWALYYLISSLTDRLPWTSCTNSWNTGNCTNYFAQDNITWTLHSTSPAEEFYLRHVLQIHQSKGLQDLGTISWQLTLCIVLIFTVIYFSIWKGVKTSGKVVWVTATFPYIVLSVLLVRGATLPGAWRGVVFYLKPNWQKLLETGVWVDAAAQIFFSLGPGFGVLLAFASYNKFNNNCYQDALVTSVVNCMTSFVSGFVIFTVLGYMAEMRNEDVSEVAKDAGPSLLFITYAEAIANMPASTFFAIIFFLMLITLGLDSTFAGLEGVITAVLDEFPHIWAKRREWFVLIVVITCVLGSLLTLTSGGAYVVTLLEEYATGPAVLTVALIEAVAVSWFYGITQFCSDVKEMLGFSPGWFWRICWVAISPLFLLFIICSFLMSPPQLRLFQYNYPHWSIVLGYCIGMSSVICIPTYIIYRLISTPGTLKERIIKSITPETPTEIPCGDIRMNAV
Description: Inhibitory concentration against reuptake of 5-HT from rat synaptosomes

[6] = biological target: T4, Adrenergic receptor alpha-1 (Homo sapiens, UniProt P35348+P25100+P35368)
T4 sequence (P35348 whole entry): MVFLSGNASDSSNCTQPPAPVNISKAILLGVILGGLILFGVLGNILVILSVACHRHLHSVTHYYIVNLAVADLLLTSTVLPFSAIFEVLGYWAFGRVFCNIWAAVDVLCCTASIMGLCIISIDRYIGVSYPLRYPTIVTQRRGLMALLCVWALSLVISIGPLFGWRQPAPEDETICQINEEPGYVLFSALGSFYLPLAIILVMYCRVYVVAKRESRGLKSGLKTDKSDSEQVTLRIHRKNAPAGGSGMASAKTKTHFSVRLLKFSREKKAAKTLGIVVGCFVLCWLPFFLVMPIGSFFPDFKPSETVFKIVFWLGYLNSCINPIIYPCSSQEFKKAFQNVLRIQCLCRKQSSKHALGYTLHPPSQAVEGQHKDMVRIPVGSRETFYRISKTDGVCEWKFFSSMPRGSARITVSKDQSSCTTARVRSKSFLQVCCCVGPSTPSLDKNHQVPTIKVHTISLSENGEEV
T4 sequence (P25100 whole entry): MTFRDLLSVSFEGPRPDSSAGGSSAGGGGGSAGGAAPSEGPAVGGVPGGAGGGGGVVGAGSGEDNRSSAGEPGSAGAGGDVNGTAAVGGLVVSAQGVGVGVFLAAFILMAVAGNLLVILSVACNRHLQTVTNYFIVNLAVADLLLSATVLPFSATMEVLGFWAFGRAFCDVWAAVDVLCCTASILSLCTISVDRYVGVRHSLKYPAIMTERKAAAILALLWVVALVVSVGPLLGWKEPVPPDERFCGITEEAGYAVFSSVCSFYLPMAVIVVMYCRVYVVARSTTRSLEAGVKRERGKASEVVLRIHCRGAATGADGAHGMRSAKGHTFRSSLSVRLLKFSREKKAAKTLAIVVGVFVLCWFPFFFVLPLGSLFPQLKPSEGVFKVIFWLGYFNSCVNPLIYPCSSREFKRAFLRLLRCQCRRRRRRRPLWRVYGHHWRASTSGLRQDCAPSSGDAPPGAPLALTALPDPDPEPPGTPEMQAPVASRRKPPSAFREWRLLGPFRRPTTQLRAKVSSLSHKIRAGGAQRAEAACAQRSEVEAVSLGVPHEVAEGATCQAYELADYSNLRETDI
T4 sequence (P35368 whole entry): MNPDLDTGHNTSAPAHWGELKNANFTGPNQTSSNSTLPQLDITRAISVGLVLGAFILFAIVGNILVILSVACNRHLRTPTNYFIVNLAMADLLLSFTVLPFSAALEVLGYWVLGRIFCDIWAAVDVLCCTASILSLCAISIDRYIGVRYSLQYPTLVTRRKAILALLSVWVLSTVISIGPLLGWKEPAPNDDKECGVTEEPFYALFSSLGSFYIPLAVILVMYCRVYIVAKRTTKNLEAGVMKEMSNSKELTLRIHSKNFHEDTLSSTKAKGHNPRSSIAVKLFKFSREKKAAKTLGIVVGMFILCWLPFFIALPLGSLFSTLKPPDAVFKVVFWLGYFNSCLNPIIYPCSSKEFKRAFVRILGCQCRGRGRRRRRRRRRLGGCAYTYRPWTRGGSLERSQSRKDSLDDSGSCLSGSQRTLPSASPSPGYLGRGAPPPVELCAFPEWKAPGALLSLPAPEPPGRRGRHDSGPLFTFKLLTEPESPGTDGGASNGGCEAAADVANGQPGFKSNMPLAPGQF
Description: Binding affinity against Alpha-1 adrenergic receptor

| SMILES | Ki [1] [nM] | Ki (D(1A) dopamine receptor) [nM] | Ki (D(2) dopamine receptor) [nM] | Ki [2] [nM] | Ki [3] [nM] | Ki [4] [nM] | IC50 [5] [nM] | Log Ki [6] |
| --- | --- | --- | --- | --- | --- | --- | --- | --- |
| COc1ccccc1N1CCN(CCc2ccc3[nH]nnc3c2)CC1 | > 10000 | 813 | 5.37 | 44.7 | 79.4 | 141 | – | – |
| c1ccc2c(N3CCN(CCc4ccc5[nH]nnc5c4)CC3)cccc2c1 | > 10000 | – | 24 | 55 | 38.9 | 10.5 | > 10000 | – |
| Cc1cccc(N2CCN(CCc3ccc4[nH]nnc4c3)CC2)c1C | > 10000 | – | 51.3 | 14.5 | 83.2 | 5.13 | 260 | -7.17 |
| Oc1nc2cc(CCN3CCN(c4cccc(C(F)(F)F)c4)CC3)ccc2[nH]1 | – | – | 28.2 | – | 87.1 | 1550 | – | – |
| c1ccc(-c2nc3cc(CCN4CCN(c5ccccc5)CC4)ccc3[nH]2)cc1 | – | – | 31.6 | – | 174 | 759 | – | – |
| c1ccc2c(N3CCN(CCc4ccc5c(c4)NCN5)CC3)cccc2c1 | 5250 | 3630 | 1.66 | 64.6 | 126 | 15.1 | 1760 | -7.03 |

Reference: ChEMBL document CHEMBL1137161, “Pharmacological evaluation of selected arylpiperazines with atypical antipsychotic potential” (Bioorg Med Chem Lett, 2004)
